Experiments:
[1] = system: common (oilseed) sunflower; test: Test C pre-/postemergence herbicide test; assay type: in vivo, Helianthus annuus; conditions: for Plant response rating, Sunflower: preemergence
Outline: (§1)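 Pre- and postemergence application, solvent/surfactant formulation; post at 1- to 4-leaf stage (2–18 cm). Greenhouse 12–14 d. Visual rating vs controls, 0 = no effect, 100 = complete control.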

velvetleaf = test: Test C pre-/postemergence herbicide test; assay type: in vivo, Abutilon theophrasti; conditions: for Plant response rating, Velvetleaf: preemergence
Outline: as §1

large crabgrass = test: Test C pre-/postemergence herbicide test; assay type: in vivo, Digitaria sanguinalis; conditions: for Plant response rating, Crabgrass, Large: preemergence
Outline: as §1

corn = test: Test C pre-/postemergence herbicide test; assay type: in vivo, Zea mays; conditions: for Plant response rating, Corn: preemergence
Outline: as §1

barnyardgrass [2] = test: Test C flooded paddy test; assay type: in vivo, Echinochloa crus-galli; conditions: for Plant response rating, Barnyardgrass: 500 g ai/ha, visual rating after 12 to 14 days
Outline: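 Injury scored visually against controls on a 0 (no effect) to 100 (complete control) scale, 12 to 14 days after treatment in greenhouse. Flooded paddy plants treated at 2-leaf stage; postemergence plants at 1- to 4-leaf stage, 2 to 18 cm tall.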

barnyardgrass [3] = test: Test A pre-/postemergence herbicide test; assay type: in vivo, Echinochloa crus-galli
Outline: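 Visual injury rating on a 0–100 scale (0 no effect, 100 complete control) versus untreated controls, about ten days after treatment in greenhouse. Pre: directed soil spray onto seeded sandy loam. Post: spray to runoff on plants 2–10 cm tall at one- to two-leaf stage.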

cocklebur = test: Test C pre-/postemergence herbicide test; assay type: in vivo, Xanthium strumarium; conditions: for Plant response rating, Cocklebur: preemergence; for Cocklebur plant response rating: Preemergence, 500 g ai/ha, scale 0 to 100, 0 no effect, 100 complete control
Outline: as §1

pigweed = test: Test C pre-/postemergence herbicide test; assay type: in vivo, Amaranthus retroflexus; conditions: for Plant response rating, Pigweed: preemergence
Outline: as §1

common ragweed = test: Test C pre-/postemergence herbicide test; assay type: in vivo, Ambrosia elatior; set-up: key to Plant response rating, Ragweed: 0 = no effect, 100 = complete control; conditions: for Plant response rating, Ragweed: preemergence
Outline: as §1

eastern black nightshade = test: Test C pre-/postemergence herbicide test; assay type: in vivo, Solanum ptycanthum; conditions: for Plant response rating, Nightshade: preemergence
Outline: as §1

lambsquarters = test: Test C pre-/postemergence herbicide test; assay type: in vivo, Chenopodium album; conditions: for Plant response rating, Lambsquarters: preemergence
Outline: as §1

ducksalad = test: Test C flooded paddy test; assay type: in vivo, Heteranthera limosa; conditions: for Plant response rating, Ducksalad: 500 g ai/ha, visual rating after 12 to 14 days
[4] = system: smallflower umbrella sedge; test: Test C flooded paddy test; assay type: in vivo, Cyperus difformis; conditions: for Plant response rating, Sedge, Umbrella: 500 g ai/ha, visual rating after 12 to 14 days
[5] = 125 g ai/ha, scale 0 (no effect) to 100 (complete control), visual, 12 to 14 days
[6] = Preemergence, 500 g ai/ha, scale 0 to 100, 0 no effect, 100 complete control
[7] = 62 g ai/ha, scale 0 to 100 (0 no effect, 100 complete control)
[8] = 125 g ai/ha, scale 0 to 100 (0 no effect, 100 complete control)
[9] = 250 g ai/ha, scale of 0 to 100, 0 is no effect, 100 is complete control
[10] = scale 0 to 100 (0 no effect, 100 complete control)
[11] = Postemergence, 500 g ai/ha, 0 to 100 scale, 0 no effect, 100 complete control
[12] = Postemergence, 2000 g ai/ha, 0 to 100 scale, 0 no effect, 100 complete control
[13] = Preemergence, 2000 g ai/ha, visual rating, 0 to 100 scale (0 no effect, 100 complete control)
[14] = preemergence, 500 g ai/ha, visual injury, 0 to 100 scale (0 no effect, 100 complete control)
[15] = 500 g ai/ha, scale 0 to 100 (0 no effect, 100 complete control), visual, 12 to 14 days

Compound: C=CCNC(=O)c1cccc(NC(=O)c2sc(C(C)(C)C)nc2CC)c1 [Compound 207]
- Plant response rating, Sunflower ([1]; 62 g ai/ha, scale 0 to 100): 0
- Plant response rating, Sunflower [1, 5]: 0
- Plant response rating, Sunflower ([1]; 250 g ai/ha, scale 0-100): 0
- Sunflower plant response rating [1, 6]: 0
- Plant response rating, Velvetleaf (velvetleaf; 62 g ai/ha, scale 0 to 100): 0
- Plant response rating, Velvetleaf (velvetleaf; [5]): 10
- Plant response rating, Velvetleaf (velvetleaf; 250 g ai/ha, scale 0-100): 40
- Velvetleaf plant response rating (velvetleaf; [6]): 60
- Plant response rating, Crabgrass, Large (large crabgrass; 62 g ai/ha, scale 0 to 100): 80
- Plant response rating, Crabgrass, Large (large crabgrass; [5]): 90
- Plant response rating, Crabgrass, Large (large crabgrass; 250 g ai/ha, scale 0-100): 100
- Crabgrass, Large plant response rating (large crabgrass; [6]): 100
- Plant response rating, Corn (corn; 62 g ai/ha, scale 0 to 100): 0
- Plant response rating, Corn (corn; [5]): 0
- Plant response rating, Corn (corn; 250 g ai/ha, scale 0-100): 5
- Corn plant response rating (corn; [6]): 20
- Barnyardgrass plant response rating (barnyardgrass [2]; [7]): 45
- Barnyardgrass plant response rating (barnyardgrass [2]; [8]): 65
- Barnyardgrass plant response rating (barnyardgrass [2]; [9]): 75
- Plant response rating, Barnyardgrass (barnyardgrass [2]; [10]): 85
- Barnyardgrass plant response rating (barnyardgrass [3]; [11]): 40
- Plant response rating, Barnyardgrass (barnyardgrass [3]; [12]): 70
- Barnyardgrass plant response rating (barnyardgrass [3]; [13]): 80
- Barnyardgrass plant response rating (barnyardgrass [3]; [14]): 70
- Plant response rating, Cocklebur (cocklebur; 62 g ai/ha, scale 0 to 100): 0
- Plant response rating, Cocklebur (cocklebur; [5]): 0
- Plant response rating, Cocklebur (cocklebur; 250 g ai/ha, scale 0-100): 0
- Cocklebur plant response rating (cocklebur): 0
- Plant response rating, Pigweed (pigweed; 62 g ai/ha, scale 0 to 100): 100
- Plant response rating, Pigweed (pigweed; [5]): 100
- Plant response rating, Pigweed (pigweed; 250 g ai/ha, scale 0-100): 100
- Pigweed plant response rating (pigweed; [6]): 100
- Plant response rating, Ragweed (common ragweed; 62 g ai/ha, scale 0 to 100): 40
- Plant response rating, Ragweed (common ragweed; [5]): 50
- Plant response rating, Ragweed (common ragweed; 250 g ai/ha, scale 0-100): 60
- Ragweed plant response rating (common ragweed; [6]): 100
- Plant response rating, Nightshade (eastern black nightshade; 62 g ai/ha, scale 0 to 100): 60
- Plant response rating, Nightshade (eastern black nightshade; [5]): 75
- Plant response rating, Nightshade (eastern black nightshade; 250 g ai/ha, scale 0-100): 100
- Nightshade plant response rating (eastern black nightshade; [6]): 100
- Plant response rating, Lambsquarters (lambsquarters; 62 g ai/ha, scale 0 to 100): 90
- Plant response rating, Lambsquarters (lambsquarters; [5]): 95
- Plant response rating, Lambsquarters (lambsquarters; 250 g ai/ha, scale 0-100): 95
- Lambsquarters plant response rating (lambsquarters; [6]): 95
- Ducksalad plant response rating (ducksalad; [7]): 55
- Ducksalad plant response rating (ducksalad; [8]): 80
- Ducksalad plant response rating (ducksalad; [9]): 80
- Plant response rating, Ducksalad (ducksalad; [10]): 85
- Sedge, Umbrella plant response rating [4, 7]: 70
- Sedge, Umbrella plant response rating [4, 8]: 75
- Sedge, Umbrella plant response rating [4, 9]: 75
- Plant response rating, Sedge, Umbrella [4, 10]: 90

Compound: CCNC(=O)c1cccc(NC(=O)c2sc(C(C)(C)C)nc2CC)c1 [Compound 210]
- Plant response rating, Sunflower ([1]; 62 g ai/ha, scale 0 to 100): 0
- Plant response rating, Sunflower [1, 5]: 0
- Plant response rating, Sunflower ([1]; 250 g ai/ha, scale 0-100): 0
- Plant response rating, Sunflower [1, 15]: 0
- Plant response rating, Velvetleaf (velvetleaf; 62 g ai/ha, scale 0 to 100): 0
- Plant response rating, Velvetleaf (velvetleaf; [5]): 0
- Plant response rating, Velvetleaf (velvetleaf; 250 g ai/ha, scale 0-100): 60
- Plant response rating, Velvetleaf (velvetleaf; [15]): 80
- Plant response rating, Crabgrass, Large (large crabgrass; 62 g ai/ha, scale 0 to 100): 80
- Plant response rating, Crabgrass, Large (large crabgrass; [5]): 80
- Plant response rating, Crabgrass, Large (large crabgrass; 250 g ai/ha, scale 0-100): 95
- Plant response rating, Crabgrass, Large (large crabgrass; [15]): 100
- Plant response rating, Corn (corn; 62 g ai/ha, scale 0 to 100): 0
- Plant response rating, Corn (corn; [5]): 10
- Plant response rating, Corn (corn; 250 g ai/ha, scale 0-100): 20
- Plant response rating, Corn (corn; [15]): 40
- Barnyardgrass plant response rating (barnyardgrass [2]; [7]): 50
- Barnyardgrass plant response rating (barnyardgrass [2]; [8]): 70
- Barnyardgrass plant response rating (barnyardgrass [2]; [9]): 85
- Plant response rating, Barnyardgrass (barnyardgrass [2]; [10]): 85
- Barnyardgrass plant response rating (barnyardgrass [3]; [11]): 80
- Plant response rating, Barnyardgrass (barnyardgrass [3]; [12]): 80
- Barnyardgrass plant response rating (barnyardgrass [3]; [13]): 90
- Barnyardgrass plant response rating (barnyardgrass [3]; [14]): 85
- Plant response rating, Cocklebur (cocklebur; 62 g ai/ha, scale 0 to 100): 0
- Plant response rating, Cocklebur (cocklebur; [5]): 0
- Plant response rating, Cocklebur (cocklebur; 250 g ai/ha, scale 0-100): 0
- Cocklebur plant response rating (cocklebur): 5
- Plant response rating, Pigweed (pigweed; 62 g ai/ha, scale 0 to 100): 100
- Plant response rating, Pigweed (pigweed; [5]): 100
- Plant response rating, Pigweed (pigweed; 250 g ai/ha, scale 0-100): 100
- Plant response rating, Pigweed (pigweed; [15]): 100
- Plant response rating, Ragweed (common ragweed; 62 g ai/ha, scale 0 to 100): 0
- Plant response rating, Ragweed (common ragweed; [5]): 0
- Plant response rating, Ragweed (common ragweed; 250 g ai/ha, scale 0-100): 90
- Plant response rating, Ragweed (common ragweed; [15]): 90
- Plant response rating, Nightshade (eastern black nightshade; 62 g ai/ha, scale 0 to 100): 80
- Plant response rating, Nightshade (eastern black nightshade; [5]): 100
- Plant response rating, Nightshade (eastern black nightshade; 250 g ai/ha, scale 0-100): 100
- Plant response rating, Nightshade (eastern black nightshade; [15]): 100
- Plant response rating, Lambsquarters (lambsquarters; 62 g ai/ha, scale 0 to 100): 100
- Plant response rating, Lambsquarters (lambsquarters; [5]): 100
- Plant response rating, Lambsquarters (lambsquarters; 250 g ai/ha, scale 0-100): 100
- Plant response rating, Lambsquarters (lambsquarters; [15]): 100
- Ducksalad plant response rating (ducksalad; [7]): 40
- Ducksalad plant response rating (ducksalad; [8]): 55
- Ducksalad plant response rating (ducksalad; [9]): 85
- Plant response rating, Ducksalad (ducksalad; [10]): 90
- Sedge, Umbrella plant response rating [4, 7]: 75
- Sedge, Umbrella plant response rating [4, 8]: 80
- Sedge, Umbrella plant response rating [4, 9]: 85
- Plant response rating, Sedge, Umbrella [4, 10]: 90

Source: patent US20060069132A1, “Azolecarboxamide herbicides” (priority 2004, published 2006)
